This passage reports MIC results from DBAASP.

Test systems include Candida albicans C627; Acinetobacter baumannii; Candida krusei ATCC 6258; Enterococcus faecalis; Escherichia coli; Klebsiella pneumoniae; Pseudomonas aeruginosa; Staphylococcus aureus; Streptococcus pyogenes.
Common to all, as to test: ≥ marks a high value that may be exact or a test limit, other limits are often not marked, values filed in µg/mL are converted to µM
The test system of test [1] is Enterococcus faecium mic80.
Test [2] deals with Escherichia coli ESBL 63103.
Test [3] relates to Pseudomonas aeruginosa 213.
The test system of test [4] is Pseudomonas aeruginosa H103.
Test [5] has as its system Pseudomonas aeruginosa LES400.
In test [6] the test system is Staphylococcus aureus ATCC 25923.
In test [7] the test system is Staphylococcus aureus C623.
The subject of test [8] is Burkholderia cepacia ATCC 25416.
In test [9] the test system is Candida glabrata ATCC 2001.
Test [10] has as its system Candida tropicalis ATCC 20115.
Test [11] concerns Enterobacter cloacae ATCC 13047.
Test [12] has as its system Enterococcus faecalis ATCC 29212.
For test [13], the system named is Escherichia coli DH5alpha.
In test [14] the test system is Flavobacterium sp. PAMC 22217.
For test [15], the system named is Lacinutrix algicola AKS293T.
For test [16], the system named is Listeria monocytogenes ATCC 15313.
In test [17] the test system is Pseudomonas aeruginosa ATCC 15442.
Test [18] deals with Psychrobacter sp. PAMC 21119.
The test system of test [19] is Shigella sonnei ATCC 29930.
For test [20], the system named is Staphylococcus aureus ATCC 33591.
For test [21], the system named is Streptococcus pyogenes ATCC 19615.
The subject of test [22] is Candida albicans LABMIC 0107.
Test [23] deals with Candida parapsilosis ATCC 22019.
The test system of test [24] is Candida parapsilosis LABMIC 0113.
Test [25] deals with Candida tropicalis LABMIC 0109.
Test [26] has as its system Candida tropicalis LABMIC 0112.
For test [27], the system named is Escherichia coli KpC+001812446.
The test system of test [28] is Klebsiella pneumoniae ATCC 13883.
Test [29] has as its system Klebsiella pneumoniae KpC+001825971.
Test [30] deals with Microsporum canis LABMIC 0401.
Test [31] deals with Papiliotrema laurentii LABMIC 0404.
Test [32] relates to Pseudomonas aeruginosa ATCC 27853.
Test [33] concerns Staphylococcus aureus ATCC 29213.
The subject of test [34] is Trichophyton rubrum LABMIC 0203.

In brackets after ≈: the same amount, converted by molar mass.

As usually defined, the MIC is the lowest concentration that inhibits growth of the organism. A lower MIC goes with inhibition by little substance. With `NCCCC[C@H](NC(=O)[C@@H](N)CCCN=C(N)N)C(=O)N[C@@H](CCCN=C(N)N)C(=O)N[C@@H](Cc1c[nH]c2ccccc12)C(=O)N[C@@H](Cc1c[nH]c2ccccc12)C(=O)N[C@@H](Cc1c[nH]c2ccccc12)C(=O)N[C@@H](Cc1c[nH]c2ccccc12)C(=O)N[C@@H](Cc1ccccc1)C(=O)N[C@@H](CCCN=C(N)N)C(=O)O` [RKRWWWWFR], the MIC with Candida albicans C627 is 5.31 µM (≈ 8 µg/mL); in test [1], 5.31 µM (≈ 8 µg/mL); in test [2], 5.31 µM (≈ 8 µg/mL); in test [3], 5.31 µM (≈ 8 µg/mL); in [4], 1.33 µM (≈ 2 µg/mL); in [5] it was 21.2 µM (≈ 32 µg/mL). Moreover, the MIC in [6] came to 2.65 µM (≈ 4 µg/mL); in test [7], 1.33 µM (≈ 2 µg/mL).

With `CC[C@H](C)[C@H](NC(=O)CNC(=O)[C@H](CCCN=C(N)N)NC(=O)[C@H](Cc1ccccc1)NC(=O)[C@H](CC(C)C)NC(=O)[C@H](Cc1cnc[nH]1)NC(=O)CNC(=O)[C@H](Cc1ccccc1)NC(=O)[C@@H](N)Cc1ccccc1)C(=O)N[C@H](C(=O)N[C@@H](CC(N)=O)C(=O)N[C@H](C(=O)NCC(=O)N[C@@H](CCCCN)C(=O)N[C@@H](Cc1cnc[nH]1)C(=O)N[C@H](C(=O)N[C@@H](Cc1cnc[nH]1)C(=O)NCC(=O)N[C@@H](CC(C)C)C(=O)N[C@@H](CC(C)C)C(=O)N[C@@H](CO)C(=O)NCC(N)=O)[C@@H](C)CC)C(C)C)[C@@H](C)CC` [FFGHLFRGIINVGKHIHGLLSG], the MIC is at least 50 µM in [8]; at least 50 µM in test [9]; 5 µM (≈ 12.1 µg/mL) in [10]; 25 µM (≈ 60.5 µg/mL) in test [11]; 25 µM (≈ 60.5 µg/mL) in [12]; 5 µM (≈ 12.1 µg/mL) in test [13]. The MIC in [14] is 1.5 µM (≈ 3.63 µg/mL); in test [15], 1.25 µM (≈ 3.02 µg/mL); in test [16] it was 5 µM (≈ 12.1 µg/mL); in test [17], at least 50 µM; in test [18], 1.25 µM (≈ 3.02 µg/mL); in [19], 5 µM (≈ 12.1 µg/mL). Further, the values for the MIC in test [20] and in [21] were 5 µM (≈ 12.1 µg/mL) and 2.5 µM (≈ 6.05 µg/mL), respectively.

For `CC[C@H](C)[C@H](NC(=O)[C@H](CCCCN)NC(=O)[C@H](CCCCN)NC(=O)[C@H](CC(C)C)NC(=O)[C@H](CCCN=C(N)N)NC(=O)[C@H](CCCCN)NC(=O)[C@@H](N)CCCCN)C(=O)N[C@@H](Cc1ccccc1)C(=O)N[C@@H](CCCCN)C(=O)N[C@@H](CCCCN)C(=O)N1CCC[C@H]1C(=O)N[C@@H](CCSC)C(=O)N[C@H](C(=O)N[C@H](C(=O)NCC(=O)N[C@H](C(=O)N[C@H](C(=O)N[C@H](C(=O)N1CCC[C@H]1C(=O)N[C@@H](Cc1ccccc1)C(N)=O)[C@@H](C)CC)[C@@H](C)O)C(C)C)[C@@H](C)CC)C(C)C` [KKRLKKIFKKPMVIGVTIPF], the minimum inhibitory concentration (MIC) is 1.69 µM (≈ 4 µg/mL) in the test on Acinetobacter baumannii; 9.99 µM (≈ 23.7 µg/mL) in test [22]; 5 µM (≈ 11.8 µg/mL) in the test on Candida krusei ATCC 6258; at least 40 µM in test [23]; 5 µM (≈ 11.8 µg/mL) in test [24]; 9.99 µM (≈ 23.7 µg/mL) in [25]. For the same compound, the minimal inhibitory concentration (MIC) in test [26] was 5 µM (≈ 11.8 µg/mL); in test [12], over 54 µM; against Enterococcus faecalis, at least 54 µM; in [27] it was 0.843 µM (≈ 2 µg/mL); in the test with Escherichia coli, 3.37 µM (≈ 8 µg/mL); in [28] it was 0.843 µM (≈ 2 µg/mL). Also, the MIC in test [29] was 3.37 µM (≈ 8 µg/mL); in the test on Klebsiella pneumoniae, 3.37 µM (≈ 8 µg/mL); in [30] it was at least 40 µM; in [31], 5 µM (≈ 11.8 µg/mL); in test [32] it was 27 µM (≈ 64 µg/mL); against Pseudomonas aeruginosa it was 27 µM (≈ 64 µg/mL). The MIC in test [6] is 6.75 µM (≈ 16 µg/mL); in test [33], over 54 µM; against Staphylococcus aureus, over 54 µM; against Streptococcus pyogenes, 3.37 µM (≈ 8 µg/mL); in test [34] it was at least 40 µM.
